Results as given in patent publication US20070082920A1, “NAD+-dependent DNA ligase inhibitors” (priority 2005, published 2007).

Legend:
[1] = target: DNA ligase enzyme (NAD+-dependent DNA ligase) (Streptococcus pneumoniae serotype 4, UniProt Q97QT2); experiment: DNA ligase AMP release assay (luciferase readout); format: biochemical; details: purified enzyme from S. pneumoniae
Experimental: Activity against DNA ligase enzyme was measured using purified enzyme from S. pneumoniae. An AMP release assay was used to assess activity of compounds against the enzyme. AMP, released as a result of the ligation of oligonucleotides, is converted to ATP, which is then measured using luciferase enzyme. The concentration of compound which inhibited 50% of the ligation activity of the enzyme (IC50) was determined.

[2] = test system: Streptococcus pneumoniae ATCC 49619; experiment: MIC, broth microdilution (CLSI), S. pneumoniae; format: cell-based
Experimental: (§1) The compounds of Formulas 1-VIII were evaluated as inhibitors of NAD+-dependent DNA ligase inhibitors. Their antimicrobial activity was evaluated against bacteria using the broth microdilution method as described by Clinical Laboratory Standards Institute (formerly NCCLS). Activity was assessed against the following bacterial strains: Staphylococcus aureus ATCC 29213, Streptococcus pneumoniae ATCC 49619, Escherichia coli ATCC 25922, E. coli CGSC 5633 (ToIC mutant), Haemophilus influenzae ATCC 49766, Streptococcus pyogenes ATCC 19615, Moraxella catterhalis ATCC 25238, Enterococcus faecalis ATCC 29212. The lowest concentration of compound which inhibited visual growth of each bacterium, the minimum inhibitory concentration (MIC), was determined.

[3] = Acute toxicity, Alamar blue cell viability, NIH 3T3; format: cell-based; details: mouse
Experimental: (§2) Acute toxicity was assessed against two mammalian cell lines, HepG2 (human hepatocyte) and NIH 3T3 (mouse fibroblast). Cell viability was measured by an in vitro assay using Alamar blue. The concentration of compound which inhibited 50% of the cell growth (LC50) was determined.

[4] = test system: Moraxella catterhalis ATCC 25238; experiment: MIC, broth microdilution (CLSI), M. catarrhalis; format: cell-based
Experimental: as §1

[5] = test system: Staphylococcus aureus ATCC 29213; experiment: MIC, broth microdilution (CLSI), S. aureus; format: cell-based; details: lowest concentration inhibiting visual growth
Experimental: as §1

[6] = test system: Enterococcus faecalis ATCC 29212; experiment: MIC, broth microdilution (CLSI), E. faecalis; format: cell-based; design: unit not given here
Experimental: as §1

[7] = test system: Escherichia coli ATCC 25922; experiment: MIC, broth microdilution (CLSI), E. coli ATCC 25922; format: cell-based; design: unit not given here
Experimental: as §1

[8] = test system: Streptococcus pyogenes ATCC 19615; experiment: MIC, broth microdilution (CLSI), S. pyogenes; format: cell-based
Experimental: as §1

[9] = test system: Haemophilus influenzae ATCC 49766; experiment: MIC, broth microdilution (CLSI), H. influenzae; format: cell-based; design: unit not given beside the values
Experimental: as §1

[10] = Acute toxicity, Alamar blue cell viability, HepG2; format: cell-based; details: human
Experimental: as §2

[11] = test system: E. coli CGSC 5633 (ToIC mutant); experiment: MIC, broth microdilution (CLSI), E. coli CGSC 5633; format: cell-based, Escherichia coli; design: unit not given beside the values
Experimental: as §1

[12] = test system: NAD+-dependent DNA ligase; details: specific DHFR inhibitors; background; cited from earlier work

Sequence of DNA ligase enzyme (NAD+-dependent DNA ligase) (Q97QT2 whole entry): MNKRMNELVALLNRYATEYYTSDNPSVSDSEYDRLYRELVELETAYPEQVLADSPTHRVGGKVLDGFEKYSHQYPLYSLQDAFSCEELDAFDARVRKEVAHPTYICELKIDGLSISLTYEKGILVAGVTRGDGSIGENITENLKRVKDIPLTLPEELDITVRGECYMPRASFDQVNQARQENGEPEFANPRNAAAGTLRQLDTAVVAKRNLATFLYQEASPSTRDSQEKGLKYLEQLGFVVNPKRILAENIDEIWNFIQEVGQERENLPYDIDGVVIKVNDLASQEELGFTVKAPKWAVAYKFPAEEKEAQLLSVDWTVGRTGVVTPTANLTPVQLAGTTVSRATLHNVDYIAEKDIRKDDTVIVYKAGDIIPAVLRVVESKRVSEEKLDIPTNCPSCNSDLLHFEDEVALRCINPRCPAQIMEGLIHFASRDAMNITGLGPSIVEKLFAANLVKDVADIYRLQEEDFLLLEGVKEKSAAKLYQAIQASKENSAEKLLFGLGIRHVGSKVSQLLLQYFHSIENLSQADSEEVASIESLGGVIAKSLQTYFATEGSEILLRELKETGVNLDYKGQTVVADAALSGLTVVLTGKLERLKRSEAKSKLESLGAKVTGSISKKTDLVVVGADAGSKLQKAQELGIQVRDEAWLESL

| Structure (SMILES) | IC50 [1] [µM] | MIC S. pneumoniae [2] | CC50 [3] [µM] | MIC M. catarrhalis [4] | MIC S. aureus ATCC 29213 [5] | MIC E. faecalis [6] | MIC E. coli ATCC 25922 [7] | MIC S. pyogenes [8] | MIC H. influenzae [9] | CC50 [10] [µM] | MIC E. coli CGSC 5633 [11] | inhibition of NAD+-dependent DNA ligase (in words) [12] | CC50 ([3]; NIH 3T3 cells, Alamar blue, 50% inhibition of cell growth, read-out: Acute Tox LC50 μM/ NIH-3T3) [µM] | CC50 ([10]; HepG2 cells, Alamar blue, 50% inhibition of cell growth, read-out: Acute Tox LC50 μM/ HepG2) [µM] |
| --- | --- | --- | --- | --- | --- | --- | --- | --- | --- | --- | --- | --- | --- | --- |
| Cc1cc(N(C)C2CCCCC2)nc2nc(N)nc(N)c12 [IV-d] | 15.2 | 8 | 12.8 | 16 | 64 | 2 | 64 | 32 | 51 | 23.4 | 0.125 | – | – | – |
| COc1cc(CN(C)c2cc(C)c3c(N)nc(N)nc3n2)cc(OC)c1OC [IV-a] | 15.2 | 4 | – | 16 | 64 | 2 | 15 | 64 | 64 | – | <0.125 | – | – | – |
| COc1cc(Cc2cnc(N)nc2N)cc(OC)c1OC [trimethoprim] | – | – | – | – | – | – | – | – | – | – | – | not to inhibit | – | – |
| Cc1c(Cc2ccccc2)c(NCc2ccc(F)c(F)c2)nc2nc(N)nc(N)c12 [II-b] | 12.6 | 4 | 2.94 | 2 | 4 | 1 | 32 | 1 | 64 | 14 | 0.125 | – | – | – |
| Cc1cc(N2Cc3ccccc3C2)nc2nc(N)nc(N)c12 [V-b] | 7.35 | 8 | 8.09 | 32 | 16 | 8 | 64 | 16 | >128 | 8.85 | 2 | – | – | – |
| CCCc1cc(N(C)C2CCCCC2)nc2nc(N)nc(N)c12 [IV-e] | 80.6 | 2 | 9.9 | 4 | 32 | 1 | 128 | 1 | – | 15.1 | 0.5 | – | – | – |
| Cc1cc(Nc2ccc3c(c2)OCCCO3)nc2nc(N)nc(N)c12 [III-p] | 11.4 | 4 | 15.6 | 16 | 128 | 0.5 | 64 | – | – | 20 | 0.125 | – | – | – |
| Cc1c(N(C)C2CCCCC2)nc2nc(N)nc(N)c2c1C [II-e] | 79.1 | 4 | 10.9 | 4 to 8 | 32 | 1 | 64 | 2 to 8 | – | 19 | 0.125 | – | – | – |
| Nc1nc(N)c2c3c(c(NCc4ccc(F)c(F)c4)nc2n1)CCCC3 [VII-a] | 17.3 | 4 | 1.24 | 8 | 16 | 8 | >128 | 32 | 64 | 19.2 | 0.5 | – | – | – |
| Cc1cc(NCc2cc(F)cc(C(F)(F)F)c2)nc2nc(N)nc(N)c12 [III-b, 2,4-diamino-5-methyl-7-[(3-fluoro-5-trifluoromethylbenzyl)amino]-pyrido[2,3-d]pyrimidine] | – | 1 | 8.34 | 8 | 16 | 0.5 | 16 | 4 | 32 | 20.9 | <0.125 | – | – | – |
| Cc1cc(NCc2cc(F)c(F)c(F)c2)nc2nc([N+](=O)[O-])nc([N+](=O)[O-])c12 [VIII-a] | – | 16 | – | 2 | 8 | 16 | 64 | 8 | 32 | – | 4 | – | 22.2 | > 30.8 |
| Cc1cc(NCc2ccc(F)cc2)nc2nc(N)nc(N)c12 [III-a] | – | 64 | 8.14 | 8 | 32 | 4 | 32 | 2 | 2 | 24 | 0.25 | – | – | – |
| CN(c1nc2nc(N)nc(N)c2c2c1CCCC2)C1CCCCC1 [VII-b] | 5.94 | 8 | 1.37 | 4 | 8 | 4 | 128 | 4 | 64 | 19.2 | <0.125 | – | – | – |
| CN(Cc1cnc2nc(N)nc(N)c2n1)c1ccc(C(=O)N[C@@H](CCC(=O)O)C(=O)O)cc1 [methotrexate] | – | – | – | – | – | – | – | – | – | – | – | not to inhibit | – | – |
| Cc1c(Cc2ccccc2)c(N(C)C2CCCCC2)nc2nc(N)nc(N)c12 [II-c] | 11.3 | 4 | 5.13 | 2 | 4 | 2 | 128 | 2 | >128 | 15 | <0.125 | – | – | – |
